The term Kd denotes the constant that tells how readily two partners part at equilibrium. Read a high Kd as lower affinity.

SMILES strings stand for the structures.

In publication PMC10813692 (2024) one finds binding, Kd and fraction eluted data, which are given here for two molecules.

Assay [1] relates to LxCsh (RNA, aptamer) GGGUUUGGGUAGUGCGAUUCGCACUGAAUGCCGCGUAGGCUUCGCUACUGGCUUCUACUACGUACCCAAACCC
The assay can be described thus: lateral flow assay, Capture-ON displacement. The note with it: 0.25 mM K+, 20 mM Na+, 5 mM Mg2+, 1x CSB (40 mM HEPES pH 7.4), room temperature, 6FAM Capture-ON displaced.

The test system of assay [2] is M13 (RNA, aptamer) GGGUUUGGGUAGAAUGCCGCGUAGGCUUCGCUACUGGCUUCUACUACGUACCCAAACCC
As to the kind of experiment: ITC. The note with it: 0.25 mM K+, 20 mM Na+, 5 mM Mg2+; 1x CSB (40 mM HEPES pH 7.4), 25 °C; 30 µM RNA, 500 µM LFX in syringe.

Assay [3] relates to LxB1 (RNA, aptamer) GGGCAACUCCAAGCUAGAUCUACCGGUGUGUAACGGAAGCACAAAGGUGCCUCCUACAGCAGGUCUUCUACUGGCUUCUACUGAUACACUAAAAUGGCUAGCAAAGGAGAAGAACUUUUCACU
As to the kind of experiment: elution from immobilised Capture-ON. The note with it: 0.25 mM K+, 20 mM Na+, 5 mM Mg2+, 1x CSB (40 mM HEPES pH 7.4), DNA Capture-ON displaced.

For assay [4], the system named is M12 (RNA, aptamer) GGGUUUGGGUGAAUGCCGCGUAGGCUUCGCUACUGGCUUCUACUACGUACCCAAACCC
The assay can be described thus: ITC. The note with it: 0.25 mM K+, 20 mM Na+, 5 mM Mg2+; 1x CSB (40 mM HEPES pH 7.4), 25 °C; 30 µM RNA, 500 µM LFX in syringe.

Assay [5] deals with M11 (RNA, aptamer) GGGUUUGGGUAGUGCGAUUCGCACUGAAUGCUUCGGCUUCUACUACGUACCCAAACCC
As to the kind of experiment: ITC. The note with it: 0.25 mM K+, 20 mM Na+, 5 mM Mg2+; 1x CSB (40 mM HEPES pH 7.4), 25 °C; 30 µM RNA, 500 µM LFX in syringe.

Assay [6] relates to M5 (RNA, aptamer) GGGUUUGGGUAGUUUCGACUGAAUGCCGCGUAGGCUUCGCUACUGGCUUCUACUACGUACCCAAACCC
The assay can be described thus: ITC. The note with it: 0.25 mM K+, 20 mM Na+, 5 mM Mg2+; 1x CSB (40 mM HEPES pH 7.4), 25 °C; 30 µM RNA, 500 µM LFX in syringe.

The test system of assay [7] is LxA2 (RNA, aptamer) GGGCAACUCCAAGCUAGAUCUACCGGUUUUUUCUGGCGGCUUAAAAACCAGGAAAGGUGGAGACUUCUACUGGCUUCUAUCCAGCCGGUAAAAUGGCUAGCAAAGGAGAAGAACUUUUCACU
The assay can be described thus: elution from immobilised Capture-ON. The note with it: 0.25 mM K+, 20 mM Na+, 5 mM Mg2+; 1x CSB (40 mM HEPES pH 7.4); 1 mM LFX; DNA Capture-ON displaced.

Assay [8] relates to LxB2 (RNA, aptamer) GGGCAACUCCAAGCUAGAUCUACCGGUGUGUAACGGAAGCACAAAGGUGCCUCCUACAGCAGGUCUUCUACUGGCUUCUACUGAUACGCUAAAAUGGCUAGCAAAGGAGAAGAACUUUUCACU
The assay can be described thus: elution from immobilised Capture-ON. The note with it: 0.25 mM K+, 20 mM Na+, 5 mM Mg2+, 1x CSB (40 mM HEPES pH 7.4), DNA Capture-ON displaced.

For assay [9], the system named is LxC (RNA, aptamer) GGGCAACUCCAAGCUAGAUCUACCGGUUUGGGUAGUGCGAUUCGCACUGAAUGCCGCGUAGGCUUCGCUACUGGCUUCUACUACGUACCCAAAAUGGCUAGCAAAGGAGAAGAACUUUUCACU
As to the kind of experiment: ITC. The note with it: 0.25 mM K+, 20 mM Na+, 5 mM Mg2+; 1x CSB (40 mM HEPES pH 7.4), 25 °C; 30 µM RNA, 500 µM LFX; one-site model.

Assay [10] deals with M2 (RNA, aptamer) GGGUUUGCGUAGUGCGAUUCGCACUGAAUGCCGCGUAGGCUUCGCUACUGGCUUCUACUACGUACGCAAACCC
As to the kind of experiment: ITC. The note with it: 0.25 mM K+, 20 mM Na+, 5 mM Mg2+; 1x CSB (40 mM HEPES pH 7.4), 25 °C; 30 µM RNA, 500 µM LFX; one-site model.

Assay [11] concerns M10 (RNA, aptamer) GGGUUUGGGUAGUGCGAUUCGCACUGAAUGCCGCGUAGUUCGCUACUGGCUUCUACUACGUACCCAAACCC
As to the kind of experiment: ITC. The note with it: 0.25 mM K+, 20 mM Na+, 5 mM Mg2+; 1x CSB (40 mM HEPES pH 7.4), 25 °C; 30 µM RNA, 500 µM LFX in syringe.

Assay [12] deals with M8 (RNA, aptamer) GGGUUUGGGUAGUCGAUUCGACUGAAUGCCGCGUAGGCUUCGCUACUGGCUUCUACUACGUACCCAAACCC
The assay can be described thus: ITC. The note with it: 0.25 mM K+, 20 mM Na+, 5 mM Mg2+; 1x CSB (40 mM HEPES pH 7.4), 25 °C; 30 µM RNA, 500 µM LFX; one-site model.

For assay [13], the system named is M3 (RNA, aptamer) GGGUUUGGGUAGUGCGAUUCGCACUGAAGCCGCGUAGGCUUCGCUACUGGCUUCUACUACGUACCCAAACCC
As to the kind of experiment: ITC. The note with it: 0.25 mM K+, 20 mM Na+, 5 mM Mg2+; 1x CSB (40 mM HEPES pH 7.4), 25 °C; 30 µM RNA, 500 µM LFX in syringe.

The subject of assay [14] is LxC (RNA, aptamer) GGGCAACUCCAAGCUAGAUCUACCGGUUUGGGUAGUGCGAUUCGCACUGAAUGCCGCGUAGGCUUCGCUACUGGCUUCUACUACGUACCCAAAAUGGCUAGCAAAGGAGAAGAACUUUUCACU
As to the kind of experiment: elution from immobilised Capture-ON. The note with it: 0.25 mM K+, 20 mM Na+, 5 mM Mg2+, 1x CSB (40 mM HEPES pH 7.4), DNA Capture-ON displaced.

The test system of assay [15] is M14 (RNA, aptamer) GGGCGCACUGAAUGCCGCGUAGGCUUCGCUACUGGCUUCUACUACGUAUAGUGCGCCC
The assay can be described thus: ITC. The note with it: 0.25 mM K+, 20 mM Na+, 5 mM Mg2+; 1x CSB (40 mM HEPES pH 7.4), 25 °C; 30 µM RNA, 500 µM LFX in syringe.

Assay [16] deals with M9 (RNA, aptamer) GGGUUUGGGUAGUCGUUCGCGACUGAAUGCCGCGUAGGCUUCGCUACUGGCUUCUACUACGUACCCAAACCC
The assay can be described thus: ITC. The note with it: 0.25 mM K+, 20 mM Na+, 5 mM Mg2+; 1x CSB (40 mM HEPES pH 7.4), 25 °C; 30 µM RNA, 500 µM LFX; one-site model.

Assay [17] relates to LxF (RNA, aptamer) GGGCAACUCCAAGCUAGAUCUACCGGUGCAGGUCUGGGAACUCGUUCCCGGCUCCAGCUGGAUUCUUCUACUGGCUUCUAGCCCGACCGGAAAAUGGCUAGCAAAGGAGAAGAACUUUUCACU
The assay can be described thus: elution from immobilised Capture-ON. The note with it: 0.25 mM K+, 20 mM Na+, 5 mM Mg2+; 1x CSB (40 mM HEPES pH 7.4); 1 mM LFX; DNA Capture-ON displaced.

In assay [18] the test system is LxD (RNA, aptamer) GGGCAACUCCAAGCUAGAUCUACCGGUCUAGUGCCUCAACUAGCCGAACCGUGGUCGUCUUCAUGCCUACUGGCUUCUACGAGAUAAAUAAAAUGGCUAGCAAAGGAGAAGAACUUUUCACU
The assay can be described thus: elution from immobilised Capture-ON. The note with it: 0.25 mM K+, 20 mM Na+, 5 mM Mg2+, 1x CSB (40 mM HEPES pH 7.4), DNA Capture-ON displaced.

Assay [19] deals with M1 (RNA, aptamer) GGGUAUGGGUAGUGCGAUUCGCACUGAAUGCCGCGUAGGCUUCGCUACUGGCUUCUACUACGUACCCAUACCC
As to the kind of experiment: ITC. The note with it: 0.25 mM K+, 20 mM Na+, 5 mM Mg2+; 1x CSB (40 mM HEPES pH 7.4), 25 °C; 30 µM RNA, 500 µM LFX; one-site model.

In assay [20] the test system is LxE (RNA, aptamer) GGGCAACUCCAAGCUAGAUCUACCGGUCGUAGUGGACCUGUUUAGGUUUGCAUACGUUAGAUGUCUUCUACUGGCUUCUAAAUCGAACCGAAAAUGGCUAGCAAAGGAGAAGAACUUUUCACU
The assay can be described thus: elution from immobilised Capture-ON. The note with it: 0.25 mM K+, 20 mM Na+, 5 mM Mg2+; 1x CSB (40 mM HEPES pH 7.4); 1 mM LFX; DNA Capture-ON displaced.

Assay [21] concerns M7 (RNA, aptamer) GGGUUUGGGUAUGAAUGCCGCGUAGGCUUCGCUACUGGCUUCUACUACGUACCCAAACCC
The assay can be described thus: ITC. The note with it: 0.25 mM K+, 20 mM Na+, 5 mM Mg2+; 1x CSB (40 mM HEPES pH 7.4), 25 °C; 30 µM RNA, 500 µM LFX in syringe.

Assay [22] concerns LxA1 (RNA, aptamer) GGGCAACUCCAAGCUAGAUCUACCGGUUUUUUCAGGCGGCUUAAAAACCAGGAAAGGUGGAGACUUCUACUGGCUUCUAUCCAGCCGGUAAAAUGGCUAGCAAAGGAGAAGAACUUUUCACU
As to the kind of experiment: elution from immobilised Capture-ON. The note with it: 0.25 mM K+, 20 mM Na+, 5 mM Mg2+; 1x CSB (40 mM HEPES pH 7.4); 1 mM LFX; DNA Capture-ON displaced.

Assay [23] relates to M4 (RNA, aptamer) GGGUUUGGGUAGUGCGAUUCGCACUGAAUGCCGGUAGGCUUCGCUACUGGCUUCUACUACGUACCCAAACCC
The assay can be described thus: ITC. The note with it: 0.25 mM K+, 20 mM Na+, 5 mM Mg2+; 1x CSB (40 mM HEPES pH 7.4), 25 °C; 30 µM RNA, 500 µM LFX in syringe.

The test system of assay [24] is LxCsh (RNA, aptamer) GGGUUUGGGUAGUGCGAUUCGCACUGAAUGCCGCGUAGGCUUCGCUACUGGCUUCUACUACGUACCCAAACCC
The assay can be described thus: ITC. The note with it: 0.25 mM K+, 20 mM Na+, 5 mM Mg2+; 1x CSB (40 mM HEPES pH 7.4), 25 °C; 30 µM RNA, 500 µM LFX; one-site model.

Assay [25] deals with M6 (RNA, aptamer) GGGUUUGGGUAGCGAUUCGCUGAAUGCCGCGUAGGCUUCGCUACUGGCUUCUACUACGUACCCAAACCC
The assay can be described thus: ITC. The note with it: 0.25 mM K+, 20 mM Na+, 5 mM Mg2+; 1x CSB (40 mM HEPES pH 7.4), 25 °C; 30 µM RNA, 500 µM LFX in syringe.

On to `C[C@H]1COc2c(N3CCN(C)CC3)c(F)cc3c(=O)c(C(=O)O)cn1c23`, for which the binding result in [1] (signal at 100 µM and above) was “yes”; in assay [2], “no”; in [3] (1 mM LFX), “yes”; in [4], “no”; in assay [5], “no”; in assay [6] it was “no”. The binding entry in [7] is given as “yes”; in assay [8] (1 mM LFX), “yes”; in assay [11], “no”; in [13] it was “no”; in [15], “no”; in [17], “yes”. Further, the binding result in assay [20] is recorded as “yes”; in assay [21], “no”; in assay [22], “yes”; in assay [23] it was “no”; in assay [25] it was “no”. The Kd in [9] came out at 6 µM; in assay [10], 4 ± 1 µM; in assay [12], 6 ± 3 µM; in assay [16] it was 3 ± 3 µM; in [19], 5 ± 6 µM; in [24] it was 6 µM. Also, the fraction eluted was found to be 27.4% in assay [14] (1 mM LFX) and 47.3% in assay [18] (1 mM LFX).

As to `O=C(O)c1cn(C2CC2)c2cc(N3CCNCC3)c(F)cc2c1=O`, the binding entry is listed as “weak” in [1] (up to 5000 µM); “weak” in [3] (1 mM CFX, LFX/CFX elution ratio 2.2); “weak” in assay [8] (1 mM CFX, LFX/CFX elution ratio 2.1); “weak” in assay [14] (1 mM CFX, LFX/CFX elution ratio 3.2); “weak” in assay [18] (1 mM CFX, LFX/CFX elution ratio 2.6).
